This is an account of results in patent US10919885B2, “Compounds and uses thereof” (Yumanity Therapeutics, Inc., priority 2018, dated 2021).

One may read the IC50 as the concentration needed to halve the response being measured. A lower IC50 goes with greater potency in that assay.

The target in one test is human SCD5 (Homo sapiens (Human), UniProt Q86SK9). The experiment in a line: Yeast growth assay, strain expressing human SCD5 as the sole desaturase (reduced growth as surrogate for SCD inhibition). It is filed as cell-based. Conditions: yeast with OLE1 deleted expressing human SCD5 from a plasmid; growth read as OD600 after 40 h at 30° C.; top drug concentration 33.3 μM. In short, it runs like this:
(§1)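 Yeast lacking OLE1 depend on plasmid-borne human SCD1 or SCD5 and are tested in SD-Ura medium without oleic/palmitoleic acid or Tween.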

The next test deals with human SCD1 (Homo sapiens (Human), UniProt O00767). Kind of test: Yeast growth assay, strain expressing human SCD1 as the sole desaturase (reduced growth as surrogate for SCD inhibition). It is filed as cell-based. Conditions: yeast with OLE1 deleted expressing human SCD1 from a plasmid; growth read as OD600 after 40 h at 30° C.; top drug concentration 33.3 μM. In short, it runs like this:
as §1

Molecules are shown by their SMILES. Where “and” joins values, the source holds several entries; their conditions need not be identical. Identical values can stand only once.

Chain of human SCD1 (O00767 whole entry): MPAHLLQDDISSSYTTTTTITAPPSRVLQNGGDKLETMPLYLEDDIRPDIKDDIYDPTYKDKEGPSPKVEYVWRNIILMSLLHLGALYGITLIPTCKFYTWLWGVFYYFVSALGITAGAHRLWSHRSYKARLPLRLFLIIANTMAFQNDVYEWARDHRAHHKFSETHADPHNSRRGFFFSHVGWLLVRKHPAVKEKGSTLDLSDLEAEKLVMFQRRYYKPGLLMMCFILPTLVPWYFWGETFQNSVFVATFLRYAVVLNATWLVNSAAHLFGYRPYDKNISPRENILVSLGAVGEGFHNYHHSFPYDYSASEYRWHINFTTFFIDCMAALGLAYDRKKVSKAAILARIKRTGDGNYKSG
Chain of human SCD5 (Q86SK9 whole entry): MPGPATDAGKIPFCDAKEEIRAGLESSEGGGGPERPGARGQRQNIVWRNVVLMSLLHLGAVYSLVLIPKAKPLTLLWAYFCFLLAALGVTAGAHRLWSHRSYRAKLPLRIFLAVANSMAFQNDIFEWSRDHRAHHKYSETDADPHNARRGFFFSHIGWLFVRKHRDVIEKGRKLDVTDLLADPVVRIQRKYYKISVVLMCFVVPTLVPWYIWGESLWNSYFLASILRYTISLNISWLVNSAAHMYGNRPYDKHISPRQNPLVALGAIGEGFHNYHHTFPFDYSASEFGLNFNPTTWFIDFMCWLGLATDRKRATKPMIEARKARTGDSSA

As to `O=C(Nc1cnn(Cc2ccccc2)c1)c1cc(-c2cccc(F)c2)on1` [Compound 144], the IC50 at human SCD5 and on human SCD1 was over 45 µM in each case.

As for `COc1ccc(C2CCCN2C(=O)c2cc(-c3ccc4c(c3)OCO4)on2)nc1` (stereo not drawn) [Compound 145], the IC50 against human SCD5 and on human SCD1 was over 45 µM in each case.

`O=C(Nc1cnn(Cc2ccccc2)c1)c1cc(-c2cnsc2)on1` [Compound 146]: the IC50 at human SCD5 is over 45 µM; against human SCD1 it was 11 µM.

Regarding `O=C(Nc1cnn(Cc2ccccc2)c1)c1cc(-c2ccncc2F)on1` [Compound 147, N-(1-benzyl-1H-pyrazol-4-yl)-5-(3-fluoropyridin-4-yl)isoxazole-3-carboxamide], the IC50 against human SCD5 was 7.4 µM; against human SCD1 it was over 45 µM.

Take `CCOC(=O)c1cc(C(=O)Nc2cnn(Cc3ccccc3)c2)on1` [Compound 151]: the IC50 against human SCD5 and on human SCD1 was over 45 µM throughout.

As to `CC(C)(O)c1cc(C(=O)Nc2cnn(Cc3ccccc3)c2)on1` [Compound 152], the IC50 against human SCD5 and at human SCD1 was over 45 µM each time.

On to `C=C(C)c1cc(C(=O)Nc2cnn(Cc3ccccc3)c2)on1` [Compound 153], for which the IC50 stood at 7 µM on human SCD5 and 9 µM against human SCD1.

As for `C#Cc1cc(C(=O)Nc2cnn(Cc3cccc(F)c3)c2)no1` [Compound 154, 5-ethynyl-N-(1-(3-fluorobenzyl)-1H-pyrazol-4-yl)isoxazole-3-carboxamide], the IC50 at human SCD5 is 5.2 µM; against human SCD1, 1.6 µM.

Turning to `CCOC(=O)c1cc(-c2cc(C(=O)Nc3cnn(Cc4cccc(F)c4)c3)no2)on1` [Compound 155], the IC50 at human SCD5 and against human SCD1 was over 45 µM in each case.

For the compound `O=C(Nc1cnn(Cc2ccccc2)c1)c1cc(-c2ccc(F)cc2F)on1` [Compound 157], the half-inhibitory concentration (IC50) at human SCD5 and at human SCD1 was over 45 µM in each case.

In the case of `NC(=O)c1cc(C(=O)Nc2cnn(Cc3cccc(F)c3)c2)no1` [Compound 162], the IC50 against human SCD5 and on human SCD1 was over 45 µM in each case.

In the case of `Cc1nnc(-c2cc(C(=O)Nc3cnn(Cc4ccccc4)c3)no2)s1` [Compound 163], the IC50 on human SCD5 and on human SCD1 was over 45 µM in each case.

For the compound `Cc1nnc(-c2cc(C(=O)Nc3cnn(Cc4ccccc4)c3)no2)o1` [Compound 165], the IC50 at human SCD5 and on human SCD1 was over 45 µM in each case.

Take `CC(C)c1cc(C(=O)Nc2cnn(CC34CCC(CC3)CC4)c2)no1` [Compound 167]: the IC50 on human SCD5 and against human SCD1 was over 45 µM throughout.

For `O=C(Nc1cnn(Cc2cccc(F)c2)c1)c1cc(-c2ccno2)on1` [Compound 168], the IC50 at human SCD5 and at human SCD1 was over 45 µM throughout.

Take `N#Cc1cc(C(=O)Nc2cnn(Cc3cccc(F)c3)c2)no1` [Compound 169]: the IC50 on human SCD5 and at human SCD1 was over 45 µM in each case.

In the case of `Cc1ccncc1Cn1cc(NC(=O)c2cc(-c3ccccc3F)on2)cn1` [Compound 172], the IC50 on human SCD5 and on human SCD1 was over 45 µM throughout.

With `COc1ccncc1Cn1cc(NC(=O)c2cc(-c3ccccc3F)on2)cn1` [Compound 173], the IC50 at human SCD5 and against human SCD1 was over 45 µM each time.

As for `O=C(Nc1cnn(Cc2cccc(F)c2)c1)c1cc(-c2nncs2)on1` [Compound 174], the IC50 against human SCD5 is over 45 µM; at human SCD1 it was 8.2 µM.

Regarding `Cc1nnc(-c2cc(C(=O)Nc3cnn(Cc4cccc(F)c4)c3)no2)s1` [Compound 175], the IC50 against human SCD5 and on human SCD1 was over 45 µM each time.

As to `CC(C)c1cc(C(=O)Nc2cc3ccccn3n2)no1` [Compound 176], the IC50 at human SCD5 and at human SCD1 was over 45 µM each time.

For `O=C(Nc1cnn(Cc2cccnc2C(F)(F)F)c1)c1cc(-c2ccccc2F)on1` [Compound 177], the IC50 against human SCD5 and at human SCD1 was over 45 µM in each case.

As to `Cc1nnc(-c2cc(C(=O)Nc3cnn(Cc4cccc(F)c4)c3)no2)o1` [Compound 179], the half-inhibitory concentration (IC50) against human SCD5 and against human SCD1 was over 45 µM throughout.

For the compound `CC(C)(C)OC(=O)Nc1cc(C(=O)Nc2cnn(Cc3ccccc3)c2)no1` [Compound 181], the IC50 is over 45 µM against human SCD5 and 5.8 µM at human SCD1.

With `CN1CCN(c2cc(C(=O)Nc3cnn(Cc4ccccc4)c3)no2)CC1` [Compound 183], the IC50 against human SCD5 and against human SCD1 was over 45 µM each time.

Consider `CC(=O)N1CCN(c2cc(C(=O)Nc3cnn(Cc4ccccc4)c3)no2)CC1` [Compound 184], for which the IC50 against human SCD5 is over 45 µM; on human SCD1, 29 µM.

For `O=C(Nc1cnn(Cc2cccc(F)c2)c1)c1cc(CO)on1` [Compound 191], the IC50 at human SCD5 and on human SCD1 was over 45 µM in each case.

As for `Nc1cc(C(=O)Nc2cnn(Cc3ccccc3)c2)no1` [Compound 192], the IC50 against human SCD5 and on human SCD1 was over 45 µM throughout.

For `O=C(Nc1cnn(Cc2ccccc2)c1)c1cc(-c2c(F)cccc2F)on1` [Compound 195], the IC50 against human SCD5 and against human SCD1 was over 45 µM throughout.

Consider `O=C(Nc1cnn(Cc2ncccc2C(F)(F)F)c1)c1cc(-c2ccccc2F)on1` [Compound 196], for which the IC50 at human SCD5 and on human SCD1 was over 45 µM each time.

Regarding `O=C(Nc1cnn(Cc2cnccc2C(F)(F)F)c1)c1cc(-c2ccncc2)on1` [Compound 202], the IC50 at human SCD5 and at human SCD1 was over 45 µM throughout.

With `O=C(c1cc(-c2ccc3c(c2)OCO3)on1)N1CCC1c1ccccc1` (stereo not drawn) [Compound 204, (5-(benzo[d][1,3]dioxol-5-yl)isoxazol-3-yl)(2-phenylazetidin-1-yl)methanone], the IC50 against human SCD5 was 3.5 µM and 2.28 µM; at human SCD1, 30 µM and 33.9 µM.

Turning to `O=C(c1cc(-c2ccco2)on1)N1CC(Cc2ccccc2)C1` [Compound 205, (3-benzylazetidin-1-yl)-[5-(2-furyl)isoxazol-3-yl]methanone], the IC50 against human SCD5 is 0.63 µM; on human SCD1, 0.23 µM.

`O=C(c1cc(-c2ccco2)on1)N1CC(Oc2ccccc2)C1` [Compound 206, [5-(2-furyl)isoxazol-3-yl]-(3-phenoxyazetidin-1-yl)methanone]: the results for the IC50 on human SCD5 and on human SCD1 were 1.4 µM and 0.28 µM, respectively.

As to `O=C(c1cc(-c2ccco2)on1)N1CC(c2ccccc2)C1` [Compound 207, [5-(2-furyl)isoxazol-3-yl]-(3-phenylazetidin-1-yl)methanone], the IC50 at human SCD5 came to 1.14 µM; on human SCD1, 2.56 µM.

`O=C(c1cc(-c2ccc3c(c2)OCO3)on1)N1CC(Oc2ccccc2)C1` [Compound 208]: the IC50 against human SCD5 and on human SCD1 was over 45 µM in each case.

As for `O=C(c1cc(-c2ccccc2)on1)N1CC2(C1)CN(c1ccccc1)C2` [Compound 209], the IC50 on human SCD5 and against human SCD1 was over 45 µM in each case.

For the compound `O=C(c1cc(-c2ccco2)on1)N1CC(Nc2ccccc2)C1` [Compound 210], the IC50 against human SCD5 and at human SCD1 was over 45 µM each time.

As to `O=C(c1cc(-c2ccccc2)on1)N1CC(c2ccccc2)C1` [Compound 212, (3-phenylazetidin-1-yl)-(5-phenylisoxazol-3-yl)methanone], the IC50 on human SCD5 was 1.62 µM; at human SCD1, 4.52 µM.

For the compound `O=C(c1cc(-c2ccccc2)on1)N1CC(Oc2ccccc2)C1` [Compound 213], the figures for the IC50 against human SCD5 and against human SCD1 were over 45 µM and 0.49 µM, respectively.

Regarding `O=C(c1cc(-c2ccccc2)on1)N1CC(Nc2ccccc2)C1` [Compound 214], the IC50 at human SCD5 and at human SCD1 was over 45 µM throughout.

Turning to `O=C(c1cc(-c2ccccc2)on1)N1CC(CCl)(CNc2ccccc2)C1` [Compound 215], the IC50 against human SCD5 is 1.36 µM; against human SCD1 it was 1.86 µM.

As for `O=C(c1cc(-c2ccc3c(c2)OCO3)on1)N1CC(Cc2ccccc2)C1` [Compound 216, [5-(1,3-benzodioxol-5-yl)isoxazol-3-yl]-(3-benzylazetidin-1-yl)methanone], the IC50 at human SCD5 was 1.13 µM; at human SCD1 it was over 45 µM.

`O=C(c1cc(-c2ccc3c(c2)OCO3)on1)N1CCC1c1ccccc1F` (stereo not drawn) [Compound 218]: the 50% inhibitory concentration (IC50) against human SCD5 and against human SCD1 was over 45 µM in each case.

For `O=C(c1cc(-c2ccc3c(c2)OCO3)on1)N1CCC1c1ccccc1Cl` (stereo not drawn) [Compound 219], the IC50 on human SCD5 and on human SCD1 was over 45 µM in each case.

In the case of `O=C(c1cc(-c2ccc3c(c2)OCO3)on1)N1CCC1c1cccc(F)c1` (stereo not drawn) [Compound 220, [5-(1,3-benzodioxol-5-yl)isoxazol-3-yl]-[2-(3-fluorophenyl)azetidin-1-yl]methanone], the IC50 against human SCD5 was 2.92 µM; against human SCD1, over 45 µM.

As for `O=C(c1cc(-c2ccc3c(c2)OCO3)on1)N1CC(Nc2ccccc2)C1` [Compound 221], the IC50 against human SCD5 and against human SCD1 was over 45 µM in each case.

Take `O=C(c1cc(-c2ccc3c(c2)OCO3)on1)N1CC2(C1)CN(c1ccccc1)C2` [Compound 222]: the IC50 at human SCD5 and at human SCD1 was over 45 µM each time.

As to `O=C(c1cc(-c2ccc3c(c2)OCO3)on1)N1CCC1c1ccc(F)cc1` (stereo not drawn) [Compound 223, [5-(1,3-benzodioxol-5-yl)isoxazol-3-yl]-[2-(4-fluorophenyl)azetidin-1-yl]methanone], the figures for the IC50 against human SCD5 and on human SCD1 were 3.26 µM and over 45 µM, respectively.

In the case of `O=C(c1cc(-c2ccc3c(c2)OCO3)on1)N1CC2(C1)CC(O)(c1ccccc1)C2` [Compound 224], the IC50 was 0.95 µM at human SCD5 and over 45 µM against human SCD1.

For the compound `O=C(c1cc(-c2ccccc2)on1)N1CC2(C=C(c3ccccc3)C2)C1` [Compound 225, (6-phenyl-2-azaspiro[3.3]hept-6-en-2-yl)-(5-phenylisoxazol-3-yl)methanone], the IC50 at human SCD5 was 6.41 µM; on human SCD1, over 45 µM.
